Legend:
[1] = Stability towards proteases: extracts of T-lymphocyte cells; type: in vitro ADME; details: 75 μg of oligomer, 5 μl of extract, protease buffer, 37° C., 3 hours; further: key: '+' denotes stability; no enzymic degradation
Method: (§1) Cell extracts from T lymphocytes and blood were also employed for the stability investigations in addition to the purified, defined proteases. For this purpose, 50 ml of cell suspension were centrifuged down at 2000 rpm, taken up in 500 μl of Tris/HCl buffer, pH 7.5; 40 mM CaCl2, and lysed with 5 μl of 20% SDS. Following dialysis against 0.1 M Tris/HCl, pH 7.5; 40 mM CaCl2, and a change of buffer after 4 hours, 5 μl were employed directly in the test. Blood was lysed directly with doubly distilled H2 O and 5 μl were then employed in the test. Bovine serine albumin (BSA) and lysozyme were used as positive controls for digestion by the proteases.
(§2) Subsequently, the gel was analysed by UV shadowing.

[2] = test system: Protease IX; test: Stability towards proteases: Protease IX; type: in vitro ADME; details: 75 μg of oligomer, 5 μl of protease, 37° C., 3 hours; PAGE, UV shadowing, silver staining; further: key: '+' denotes stability; no enzymic degradation
Method: as §2

[3] = target: Endoprotease LYS--C (Lysobacter enzymogenes, UniProt Q7M135); test: Stability towards proteases: Endoprotease LYS--C; type: in vitro ADME; details: 75 μg of oligomer, 5 μl of protease, 37° C., 3 hours; PAGE, UV shadowing, silver staining; further: key: '+' denotes stability; no enzymic degradation
Endoprotease LYS--C, sequence (Q7M135 whole entry): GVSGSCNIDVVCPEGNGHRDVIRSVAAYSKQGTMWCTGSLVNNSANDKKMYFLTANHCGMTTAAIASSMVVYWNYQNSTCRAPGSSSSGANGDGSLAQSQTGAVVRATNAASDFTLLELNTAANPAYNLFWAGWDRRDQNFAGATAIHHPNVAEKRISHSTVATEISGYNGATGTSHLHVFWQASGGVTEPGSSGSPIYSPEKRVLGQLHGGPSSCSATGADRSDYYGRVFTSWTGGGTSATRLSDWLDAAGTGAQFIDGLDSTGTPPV
Method: as §2

[4] = Stability of nucleic acid-binding oligomers towards proteases and nucleases (overall statements); type: in vitro ADME; details: 37° C., 3 hours
Method: For this purpose, the nucleic acid-binding oligomers were treated-with non-specific and specific proteases, such as, for example, pronase E, proteinase K, trypsin, endoprotease Lys.C, V8 protease, protease IX and protease XXI, nucleases, such as, for example, S1 nuclease and Ba131 nuclease, phosphodiesterase, and cell extracts and organ extracts and blood serum and blood extracts which contain various nucleases and proteases. The oligomers were examined for degradation by polyacrylamide gel electrophoresis and UV shadowing on TLC plates containing UV indicator and by silver-staining the polyacrylamide gels.
as §1, with “the proteases. […]” for “the proteases.”

[5] = target: T1, S1 nuclease (Aspergillus oryzae, UniProt P24021); test: Stability towards nucleases: S1 nuclease; type: in vitro ADME; details: 75 μg of oligomer, 5 μl of nuclease (40 units), 37° C., 3 hours; PAGE, UV shadowing; further: key: '+' denotes stability; no enzymic degradation
T1 sequence (P24021 21-287): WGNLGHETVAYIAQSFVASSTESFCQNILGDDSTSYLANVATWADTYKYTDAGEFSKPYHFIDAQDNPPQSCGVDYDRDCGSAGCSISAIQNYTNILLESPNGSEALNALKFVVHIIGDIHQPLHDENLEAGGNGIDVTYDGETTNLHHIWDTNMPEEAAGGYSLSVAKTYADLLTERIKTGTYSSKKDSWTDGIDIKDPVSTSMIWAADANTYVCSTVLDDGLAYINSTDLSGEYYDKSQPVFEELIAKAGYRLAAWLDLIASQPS
Method: (§3) Subsequently, the gel was analysed by UV shadowing. […] The oligomers are stable towards the nucleases and cell extracts which were tested.

[6] = test system: Protease XXI; test: Stability towards proteases: Protease XXI; type: in vitro ADME; details: 75 μg of oligomer, 5 μl of protease, 37° C., 3 hours; PAGE, UV shadowing, silver staining; further: key: '+' denotes stability; no enzymic degradation
Method: as §2

[7] = test system: Bal31 nuclease; test: Stability towards nucleases: Bal31 nuclease; type: in vitro ADME; details: 75 μg of oligomer, 5 μl of nuclease (40 units), 37° C., 3 hours; PAGE, UV shadowing; further: key: '+' denotes stability; no enzymic degradation
Method: as §3

[8] = Stability towards nucleases: T-lymphocyte extract; type: in vitro ADME; details: 75 μg of oligomer, nuclease buffer, 37° C., 3 hours; further: key: '+' denotes stability; no enzymic degradation
Method: (§4) Cell extracts from T-lymphocytes and blood were also employed for the stability investigations in addition to the purified, defined nucleases. For this purpose, 50 ml of cell suspension were centrifuged down at 2000 rpm, taken up in 500 μl of Tris/HCl buffer, pH 7.5; 40 mM CaCl2, and lysed with 5 μl of 20% SDS. Following dialysis against 0.1 M Tris/HCl, pH 7.5; 40 mM CaCl2, and a change of buffer after 4 hours, 5 μl were employed directly in the test. Blood was employed directly following lysis with doubly distilled H2 O. A 25mer oligonucleotide diester was employed as the positive control for digestion by the nucleases.
as §3

[9] = test system: Trypsin; test: Stability towards proteases: Trypsin; type: in vitro ADME; details: 75 μg of oligomer, 5 μl of protease, 37° C., 3 hours; PAGE, UV shadowing, silver staining; further: key: '+' denotes stability; no enzymic degradation
Method: as §2

[10] = test system: Pronase E; test: Stability towards proteases: Pronase E; type: in vitro ADME; details: 75 μg of oligomer, 5 μl of protease, 37° C., 3 hours; PAGE, UV shadowing, silver staining; further: key: '+' denotes stability; no enzymic degradation
Method: as §2

[11] = Stability towards proteases: blood extract; type: in vitro ADME; details: 75 μg of oligomer, 5 μl of lysed blood, protease buffer, 37° C., 3 hours; further: key: '+' denotes stability; no enzymic degradation
Method: as §1, §2

[12] = target: Proteinase K (Parengyodontium album, UniProt P06873); test: Stability towards proteases: Proteinase K; type: in vitro ADME; details: 75 μg of oligomer, 5 μl of protease, 37° C., 3 hours; PAGE, UV shadowing, silver staining; further: key: '+' denotes stability; no enzymic degradation
Proteinase K, sequence (P06873 106-384): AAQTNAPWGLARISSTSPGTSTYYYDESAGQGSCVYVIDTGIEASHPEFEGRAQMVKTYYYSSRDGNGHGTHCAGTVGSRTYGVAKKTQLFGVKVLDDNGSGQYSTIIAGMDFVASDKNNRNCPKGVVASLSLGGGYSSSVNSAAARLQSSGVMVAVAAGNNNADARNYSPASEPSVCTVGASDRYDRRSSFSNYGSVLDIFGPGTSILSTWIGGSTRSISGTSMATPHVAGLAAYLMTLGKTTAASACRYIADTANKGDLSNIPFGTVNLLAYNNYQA
Method: as §2

[13] = Stability towards nucleases: blood; type: in vitro ADME; details: 75 μg of oligomer, lysed blood, nuclease buffer, 37° C., 3 hours; further: key: '+' denotes stability; no enzymic degradation
Method: as §4, §3

[14] = test system: double-stranded plasmid DNA containing two poly-adenine sequence regions; test: Strand displacement in double-stranded plasmid DNA; details: S1 nuclease digestion at high salt concentrations
Method: Double-stranded, circular plasmid DNA, which is of 4880 base pairs in length and which contains two poly-adenine sequence regions having at least nine consecutive adenine nucleotides, which sequence regions are at a distance apart of 1150 base pairs, is used in the tests described here.
Subsequently, 4 μl of buffer (250 mM Na acetate, 1 M NaCl, 2.5% glycerol, 5 mM ZnCl2, pH 4.4) were added to all the samples while 1 μl of S1 nuclease from Aspergillus oryzae (from Boehringer Mannheim), having an activity of 10 U/μl, was added to each of samples 2 to 6. After having been incubated at 30° C. for 15 minutes, the samples were placed on ice, 1 μl of 0.5 M EDTA and 3 μl of loading buffer (50% glycerol, 0.25% bromophenol blue in 40 mM Tris/HCl, 20 mM sodium acetate, 1 mM EDTA, pH=7.2) were added, and, without delay, the samples were fractionated electrophoretically on 1.2% agarose gels and, after staining with ethidium bromides, the sizes of the resulting plasmid fragments on the gel were determined by comparison with a molecular weight standard (1-kb ladder, from Gibco-BRL, D-7514 Eggenstein) on a transilluminator using 254 nm UV light.

Substance	Stability towards extracts of T-lymphocyte cells (HUT, U 937), protease test [1]	Stability towards Protease IX [2]	Stability towards Endoprotease LYS--C [3]	Stability towards the proteases and cell extracts which were tested [4]	Stability towards S1 nuclease [5]	Stability towards Protease XXI [6]	Stability towards Bal31 nuclease [7]	Stability towards T-lymphocyte extract, nuclease test [8]	Stability towards Trypsin [9]	Stability towards Pronase E [10]	Stability towards extract of blood, protease test [11]	Stability towards Proteinase K [12]	Stability towards blood, nuclease test [13]	Binding to double-stranded DNA (strand displacement), result in words [14]
H--(III T)8 --Ala--OH [H-(IIIT)8 -Ala--OH]	+	+	+	stable	+	+	+	+	+	+	+	+	+	
H--(III T)12 --Lys--OH [H-(IIIT)12 -Lys--OH]	+	+	+	stable	+	+	+	+	+	+	+	+	+	concentration-dependent and sequence-selective binding

From patent US5623049A (Bayer Aktiengesellschaft, priority 1993, dated 1997)
